In US20070134349A1, “Methods of treating hematological malignancies” (DUKE UNIVERSITY, priority 2005, published 2007):
Like-named read-outs stand apart in the source and are kept apart here.

Tests used:
[1] = cited from earlier work
H3 [2] = test: Western blot of acetyl-H3 and phospho-H3 in U-937 cells; format: cell-based; settings: higher concentrations, 18 h
Experimental: (§1) Whole-cell lysates were prepared by washing the cells with PBS and resuspending them in 1 ml of lysis buffer (1× phosphate-buffered saline, 1 mM EDTA, 1.5 mg/ml of iodoacetamide, 100 μM sodium orthovanadate, 0.5% Triton X-100, 20 mM β-glycerolphosphate, 0.2 mM phenylmethylsulfonyl fluoride, and 1× complete protease inhibitor cocktail). After clarification by a 15-min centrifugation in a microcentrifuge at 4° C., the resulting supernatant was collected. 20-50 μg of protein extracts were separated on a 10% SDS-polyacrylamide gel and transferred to a nitrocellulose membrane. The membrane was blocked with 5% nonfat milk followed by incubation with antibodies. The immunocomplex was visualized by chemiluminescence.

U-937 cells [3] = test: CD11c expression by flow cytometry in U-937 cells; format: cell-based; settings: lower concentrations, 3 days
Experimental: (§2) NB4 cells were provided by Dr. Ronald Evans (Salk Institute, La Jolla, Calif.). NB4-R4 cells were provided by Dr. Wilson Miller (McGill University, Montreal, Canada). HL-60, U-937, and Kasumi-1 cells were obtained from the American Type Culture Collection (Rockville, Md.). NB4 and NB4-R4 cells were grown in RPMI medium 1640 containing 10% fetal bovine serum. U-937 cells were grown in RPMI medium 1640 containing 10 mM HEPES, 1 mM sodium pyruvate, 4.5 g/L glucose, and 10% fetal bovine serum. HL-60 cells were grown in Iscove's Modified Dulbecco's medium containing 20% fetal bovine serum. Kasumi-1 cells were grown in RPMI medium 1640 containing 10 mM HEPES, 1 mM sodium pyruvate, 4.5 g/L glucose, and 20% fetal bovine serum.
(§3) To determine the percentage of cells that express differentiation markers, cells were washed once and resuspended in RPMI medium 1640 containing 3% fetal bovine serum. Phycoerythrin (PE)-conjugated CD11b, 5 Allophycocyanin (APC)-CD11c or control antibodies (BD Pharmingen, San Diego, Calif.) were added into cell suspension. After 30 minutes of incubation in the dark at 4° C., the cells were washed twice and resuspended in RPMI medium 1640 containing 7-amino actinomycin D (AAD) (for dead cell exclusion) and analyzed by FACScan (Becton Dickinson).

NB4 cells [4] = test: Apoptosis by Annexin V binding (flow cytometry) in NB4 cells; format: cell-based; settings: MAA 5 mM alone, NB4 cells, 3 days
Experimental: as §2
(§4) To determine the percentage of cells that undergo apoptosis, after incubation with APC-CD11c antibody in the dark at 4° C., cells were washed twice with PBS and incubated at room temperature for 15 min with PE-conjugated Annexin-V (BD Pharmingen) and 7-AAD in binding buffer (10 mM HEPES, pH 7.4, 140 mM NaCI, 2.5 mM CaCl2) and analyzed by FACScan for CD11c expression and Annexin V binding. Apoptotic cells are those that stained positive for Annexin V and negative for 7-AAD.

[5] = in rats; cited from earlier work
ERK1/2 [6] = test: Western blot of phospho-ERK1/2 in U-937 cells; format: cell-based; settings: higher concentrations, 18 h, total ERK1/2 unaffected
Experimental: as §1

[7] = in non-human primates; cited from earlier work
RARE-TK-Luc reporter = RARE-TK-Luc reporter transient transfection in NB4 cells; format: cell-based; settings: MAA 5 mM, 19 h
Experimental: Electroporation was performed using a Gene Pulser (BioRad, Hercules, Calif.) apparatus at 300 V and 960 μF capacity. […] Cells were harvested 19 h after transfection/treatment for luciferase and β-galactosidase activities.

NB4 cells [8] = test: Differentiation markers CD11c/CD11b by flow cytometry in NB4 cells; format: cell-based
Experimental: as §2, §3

ERK1/2 [9] = test: Western blot of phospho-ERK1/2 in NB4 cells; format: cell-based; settings: 24 h
Experimental: as §1

H3 [10] = test: Western blot of phospho-H3 (Ser-10) in NB4 cells; format: cell-based; settings: NB4 cells, 24 h
Experimental: as §1

histones H3 and H4 = test: Western blot of acetylated histones H3 and H4 in NB4 cells; format: cell-based
Experimental: as §1

Kasumi-1 cells = test: CD11c expression by flow cytometry in Kasumi-1 cells; format: cell-based; settings: 3 days
Experimental: as §2, §3

PML-RARα = biological target: T1, PML-RARα (Homo sapiens, UniProt P10276+P29590); test: Western blot of PML-RARα and RARα in NB4 cells; format: cell-based; settings: 3 days
T1 construct: PML portion (fusion partner, UniProt P29590); endogenous in cells; host or cells: NB4 cells
T1 sequence (P29590+P10276 with tags, fused parts or gaps): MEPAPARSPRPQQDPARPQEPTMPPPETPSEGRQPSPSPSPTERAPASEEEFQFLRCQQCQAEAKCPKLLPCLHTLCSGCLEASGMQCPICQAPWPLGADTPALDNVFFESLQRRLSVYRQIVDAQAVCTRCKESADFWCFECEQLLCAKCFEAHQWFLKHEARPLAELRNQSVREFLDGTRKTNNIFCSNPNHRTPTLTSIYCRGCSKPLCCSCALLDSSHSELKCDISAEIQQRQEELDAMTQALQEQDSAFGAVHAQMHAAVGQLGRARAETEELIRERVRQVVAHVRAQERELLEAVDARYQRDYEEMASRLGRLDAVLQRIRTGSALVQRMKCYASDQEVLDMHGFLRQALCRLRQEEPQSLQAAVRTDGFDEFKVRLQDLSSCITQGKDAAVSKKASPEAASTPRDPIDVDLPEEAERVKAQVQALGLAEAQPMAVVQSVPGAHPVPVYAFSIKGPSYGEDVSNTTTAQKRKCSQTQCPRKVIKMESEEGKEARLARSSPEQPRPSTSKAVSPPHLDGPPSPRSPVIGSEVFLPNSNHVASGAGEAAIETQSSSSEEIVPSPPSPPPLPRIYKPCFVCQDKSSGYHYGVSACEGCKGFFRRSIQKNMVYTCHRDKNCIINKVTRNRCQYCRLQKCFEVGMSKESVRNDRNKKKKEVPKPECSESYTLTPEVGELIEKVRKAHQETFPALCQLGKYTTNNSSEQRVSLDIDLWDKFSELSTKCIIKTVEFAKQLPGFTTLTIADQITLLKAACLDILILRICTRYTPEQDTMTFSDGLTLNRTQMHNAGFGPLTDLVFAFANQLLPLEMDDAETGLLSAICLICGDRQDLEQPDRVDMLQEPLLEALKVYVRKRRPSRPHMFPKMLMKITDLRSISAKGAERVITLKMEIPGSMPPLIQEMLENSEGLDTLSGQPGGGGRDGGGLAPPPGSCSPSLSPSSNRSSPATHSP
Experimental: as §1

U-937 cells [11] = test: Annexin V binding in U-937 cells; format: cell-based; settings: higher concentrations, 3 days
Experimental: as §2, §4

C/EBPβ = test: Western blot of phospho-C/EBPβ (Thr-235) and C/EBPβ in NB4 cells; format: cell-based
Experimental: as §1

[12] = in human; cited from earlier work
HL-60 cells = test: CD11c expression by flow cytometry in HL-60 cells; format: cell-based; settings: 48 h
Experimental: as §2, §3

[13] = cited from earlier work; remark: listed apart in the source
[14] = industrial solvent of which MAA is a metabolite; cited from earlier work

## COCC(=O)O [MAA, methoxyacetic acid]
[1]; Shih et al 2001
  half-life in vivo: long
H3 [2]
  H3 acetylation and phosphorylation: increase
U-937 cells [3]
  expression of the differentiation marker CD11c: increasing expression
NB4 cells [4]
  apoptosis (Annexin V): does not induce significant amount of apoptosis
[5]
  elimination half-life: 13 to 18 h
ERK1/2 [6]
  activity of ERK1/2 (phospho-ERK1/2): downregulate
[7]
  elimination half-life: 20 h
RARE-TK-Luc reporter
  transcription of RARE-containing reporter gene (RARE-TK-Luc): does not activate
NB4 cells [8]; MAA 1 mM added to ATO 0.1 to 1 μM, NB4 cells, 3 days
  percentage of cells expressing CD11c induced by ATO: significantly increases
NB4 cells [8]; MAA 1 mM alone, NB4 cells, 24 h, from 26%
  percentage of cells expressing CD11b: 51%
NB4 cells [8]; MAA 5 mM alone, NB4 cells, 3 days
  expression of CD11c and CD11b: can induce expression
NB4 cells [8]; MAA 5 mM, 21 h
  NB4 cell differentiation (CD11c): can induce NB4 cell differentiation
NB4 cells [8]; NB4 cells, 24 h, from 32%
  percentage of cells expressing CD11c: 41%
NB4 cells [8]; NB4 cells, 3 days
  percentage of NB4 cells expressing the myeloid differentiation markers CD11c and CD11b: comparable to ATRA
NB4 cells [8]; NB4 cells, FIG. 10
  NB4 differentiation: potent inducers
ERK1/2 [9]; higher concentrations (no differentiating effects), total ERK not decreased
  levels of phosphorylated ERK: dramatically decreased
ERK1/2 [9]; lower concentrations
  constitutive levels of phosphorylated ERK: did not change
H3 [10]; higher concentrations
  H3 phosphorylation (Ser-10): dramatically increased
H3 [10]; lower concentrations
  H3 phosphorylation (Ser-10): without effect
Histones H3 and H4; as shown in the applicant's study (histone acetylation)
  HDACI potency relative to BA: less potent HDACI than BA
Histones H3 and H4; concentrations optimal for differentiation, NB4 cells, 24 h
  H3 or H4 acetylation: no significant increase
Histones H3 and H4; concentrations required for apoptosis, NB4 cells, 24 h
  H3 and H4 acetylation: robust acetylation
Kasumi-1 cells
  percentage of cells expressing CD11c: increased
PML-RARα
  degradation of RARα and accumulation of ΔPML-RARα: not observed
  expression level of PML-RARα fusion protein: no effect
U-937 cells [11]
  apoptosis (Annexin V): inducing apoptosis
C/EBPβ; 17 h
  level of phosphorylated C/EBPβ at Thr-235: dose-dependent increase
C/EBPβ; lower concentrations, 24 h
  phosphorylation of C/EBPβ at Thr-235: maximal phosphorylation
[12]
  elimination half-life: 77.1 h
HL-60 cells
  differentiation as evidenced by expression of CD11c: induce differentiation

## CC(/C=C/C(=O)NO)=C\[C@@H](C)C(=O)c1ccc(N(C)C)cc1 [TSA, trichostatin A]
[1]; in vivo
  metabolism: rapidly metabolized
[13]
  activity in vivo (anti-tumor): does not exhibit significant activity

## COCCO [ethylene glycol monomethyl ether]
[14]
  developmental toxicity: developmental toxicant
